Laboratory results: patent US11421044B2, “Nitric oxide-releasing antibacterial polymers and scaffolds fabricated therefrom and methods pertaining thereto” (THE UNIVERSITY OF NORTH CAROLINA AT CHAPEL HILL, priority 2018, dated 2022)

How the values were obtained:
Test in all cases: Planktonic bactericidal assay, 4 h
Details in all cases: 4 h exposure
MRSA = assay type: cell-based, methicillin-resistant S. aureus (ATCC #33591)
Method: (§1) Planktonic bactericidal assay. Bacterial cultures of P. aeruginosa, E. coli, E. faecalis, S. aureus, multidrug-resistant (MDR) P. aeruginosa, and methicillin-resistant S. aureus were grown from frozen (−80° C.) stocks overnight in TSB (3 mL) at 37° C. An aliquot (1 mL) of the overnight solution was recultured in fresh TSB (50 mL) to a concentration of 10^8 CFU mL^−1 and subsequently diluted to 10^6 CFU mL^−1 in PBS (10 mM, pH 7.4). Weighed samples of control (non-NO-releasing) HA, NO-releasing HA, or neomycin sulfate were dissolved in PBS and titrated with 1 M HCl to adjust the pH to 7.4.
(§2) Samples were added to a 96-well polystyrene plate and serially diluted in PBS so that each well contained 100 μL of control HA, NO-releasing HA, or neomycin. Bacterial solution containing 10^6 CFU mL^−1 (100 μL; 1 vol % TSB supplemented PBS) was added to each well, giving final HA concentrations in the range of 0.25 to 32 mg mL^−1 or neomycin concentrations from 0.5 to 1024 μg mL^−1. The 96-well plate was then incubated at 37° C. for 4 h with gentle shaking. […] Viability of bacteria following treatment with HA or neomycin was determined using a Flash & Go colony counter (IUL; Farmingdale, N.Y.). […] The NO dose required for bactericidal action was calculated by multiplying the MBC4 h of the NO-releasing HA samples (mg mL^−1) with the total NO released in PBS (pH 7.4; μmol NO mg^−1 HA) at 4 h. […]

P. aeruginosa = assay type: cell-based, Pseudomonas aeruginosa (ATCC #47085)
Method: as §1, §2

E. faecalis = assay type: cell-based, Enterococcus faecalis (ATCC #29212)
Method: as §1, §2

MDR-P. aeruginosa = assay type: cell-based, multidrug-resistant P. aeruginosa (ATCC #BAA-2110)
Method: as §1, §2

S. aureus = assay type: cell-based, Staphylococcus aureus (ATCC #29213)
Method: as §1, §2

E. coli = assay type: cell-based, Escherichia coli (ATCC #43888)
Method: as §1, §2

## neomycin sulfate
MRSA
  Dose of neomycin for 3-log reduction: >1024 μg mL^−1
P. aeruginosa
  Dose of neomycin for 3-log reduction: 32 μg mL^−1
E. faecalis
  Dose of neomycin for 3-log reduction: 64 μg mL^−1
MDR-P. aeruginosa
  Dose of neomycin for 3-log reduction: 128 μg mL^−1
S. aureus
  Dose of neomycin for 3-log reduction: 2 μg mL^−1
E. coli
  Dose of neomycin for 3-log reduction: 1 μg mL^−1
